Measurements from ChEMBL document CHEMBL4385620, “Inhibition of polypeptide N-acetyl-α-galactosaminyltransferases is an underlying mechanism of dietary polyphenols preventing colorectal tumorigenesis” (Bioorg Med Chem, 2019).
Calls of active or inactive are those of the source. No cut-off for these calls is given here.

What was measured:
[1] = target: T1, Polypeptide N-acetylgalactosaminyltransferase 2 (Homo sapiens, UniProt Q10471); test: Inhibition of catalytic activity of human recombinant FLAG-tagged ppGalNAcT2 expressed in HEK293T cells and using 5-FAM labelled-EA2 peptide as substrate incubated for 30 mins by HPLC-based enzyme assay
HT-29 [2] = test: Effect on ppGalNAcT6 expression level in human HT-29 cells at 40 uM incubated for 48 hrs by Q-PCR analysis; assay type: ADME, cell-based; settings: ht-29, 48 h
[3] = target: T1, Polypeptide N-acetylgalactosaminyltransferase 2; test: Binding affinity of human recombinant FLAG-tagged ppGalNAcT2 expressed in HEK293 cells assessed as dissociation constant by SPR analysis
HT-29 [4] = test: Effect on ppGalNAcT10 expression level in human HT-29 cells at 40 uM incubated for 48 hrs by Q-PCR analysis; assay type: ADME, cell-based; settings: ht-29, 48 h
[5] = target: T2, Polypeptide N-acetylgalactosaminyltransferase 6 (Homo sapiens, UniProt Q8NCL4); test: Inhibition of catalytic activity of ppGalNAcT6 (unknown origin) using EA2 peptide as substrate incubated for 30 mins by HPLC-based enzyme assay
T2 sequence (Q8NCL4 whole entry): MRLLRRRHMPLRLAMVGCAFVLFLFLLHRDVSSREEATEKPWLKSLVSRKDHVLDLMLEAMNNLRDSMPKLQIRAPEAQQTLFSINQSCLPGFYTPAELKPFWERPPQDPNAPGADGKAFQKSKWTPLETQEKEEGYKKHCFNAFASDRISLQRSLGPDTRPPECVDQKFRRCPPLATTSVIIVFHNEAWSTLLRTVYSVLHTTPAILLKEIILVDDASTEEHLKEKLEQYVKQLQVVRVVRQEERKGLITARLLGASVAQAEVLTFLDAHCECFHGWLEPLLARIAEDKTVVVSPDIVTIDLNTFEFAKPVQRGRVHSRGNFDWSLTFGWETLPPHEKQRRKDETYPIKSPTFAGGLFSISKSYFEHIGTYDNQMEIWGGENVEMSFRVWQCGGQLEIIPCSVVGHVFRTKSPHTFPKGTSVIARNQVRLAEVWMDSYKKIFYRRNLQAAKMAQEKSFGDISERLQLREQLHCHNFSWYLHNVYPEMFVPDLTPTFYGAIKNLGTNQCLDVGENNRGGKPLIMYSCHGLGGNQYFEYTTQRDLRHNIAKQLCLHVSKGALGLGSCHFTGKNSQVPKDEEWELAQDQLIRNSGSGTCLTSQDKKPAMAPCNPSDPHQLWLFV

[6] = target: T1, Polypeptide N-acetylgalactosaminyltransferase 2; test: Inhibition of catalytic activity of human recombinant FLAG-tagged ppGalNAcT2 using Muc7 peptide as substrate incubated for 30 mins by HPLC-based enzyme assay
[7] = target: T1, Polypeptide N-acetylgalactosaminyltransferase 2; test: Inhibition of catalytic activity of human recombinant FLAG-tagged ppGalNAcT2 using Muc2 peptide as substrate incubated for 30 mins by HPLC-based enzyme assay
[8] = target: T1, Polypeptide N-acetylgalactosaminyltransferase 2; test: Binding affinity of human recombinant FLAG-tagged ppGalNAcT2 expressed in HEK293 cells assessed as dissociation rate by SPR analysis
[9] = target: T1, Polypeptide N-acetylgalactosaminyltransferase 2; test: Inhibition of ppGalNAcT2 in human HT-29 cells assessed as reduction in O-GalNAc glycans by measuring PNA lectin expression at 20 to 60 uM incubated for 48 hrs by Western blot analysis; assay type: cell-based
[10] = target: T1, Polypeptide N-acetylgalactosaminyltransferase 2; test: Inhibition of ppGalNAcT2 in human RKO cells assessed as reduction in O-GalNAc glycosylation by measuring VVA lectin expression at 40 uM incubated for 48 hrs by Western blot analysis; assay type: cell-based
HT-29 [11] = test: Effect on ppGalNAcT2 expression level in human HT-29 cells at 40 uM incubated for 48 hrs by Western blot analysis; assay type: ADME, cell-based; settings: ht-29, 48 h
HT-29 [12] = test: Reduction in PDPN protein expression in human HT-29 cells at 40 uM for 48 hrs by Western blot analysis; assay type: functional, cell-based
HT-29 [13] = test: Effect on ppGalNAcT4 expression level in human HT-29 cells at 40 uM incubated for 48 hrs by Q-PCR analysis; assay type: ADME, cell-based; settings: ht-29, 48 h
HT-29 [14] = test: Effect on ppGalNAcT4 expression level in human HT-29 cells at 40 uM incubated for 48 hrs by Western blot analysis; assay type: ADME, cell-based; settings: ht-29, 48 h
RKO = test: Antimigratory activity in human RKO cells at 40 uM incubated for 48 hrs by crystal violet staining based method; assay type: functional, cell-based
[15] = target: T3, UDP-N-acetylglucosamine--peptide N-acetylglucosaminyltransferase 110 kDa subunit (Homo sapiens, UniProt O15294); test: Inhibition of catalytic activity of OGT (unknown origin) using EA2 peptide as substrate incubated for 30 mins by HPLC-based enzyme assay
T3 sequence (O15294 whole entry): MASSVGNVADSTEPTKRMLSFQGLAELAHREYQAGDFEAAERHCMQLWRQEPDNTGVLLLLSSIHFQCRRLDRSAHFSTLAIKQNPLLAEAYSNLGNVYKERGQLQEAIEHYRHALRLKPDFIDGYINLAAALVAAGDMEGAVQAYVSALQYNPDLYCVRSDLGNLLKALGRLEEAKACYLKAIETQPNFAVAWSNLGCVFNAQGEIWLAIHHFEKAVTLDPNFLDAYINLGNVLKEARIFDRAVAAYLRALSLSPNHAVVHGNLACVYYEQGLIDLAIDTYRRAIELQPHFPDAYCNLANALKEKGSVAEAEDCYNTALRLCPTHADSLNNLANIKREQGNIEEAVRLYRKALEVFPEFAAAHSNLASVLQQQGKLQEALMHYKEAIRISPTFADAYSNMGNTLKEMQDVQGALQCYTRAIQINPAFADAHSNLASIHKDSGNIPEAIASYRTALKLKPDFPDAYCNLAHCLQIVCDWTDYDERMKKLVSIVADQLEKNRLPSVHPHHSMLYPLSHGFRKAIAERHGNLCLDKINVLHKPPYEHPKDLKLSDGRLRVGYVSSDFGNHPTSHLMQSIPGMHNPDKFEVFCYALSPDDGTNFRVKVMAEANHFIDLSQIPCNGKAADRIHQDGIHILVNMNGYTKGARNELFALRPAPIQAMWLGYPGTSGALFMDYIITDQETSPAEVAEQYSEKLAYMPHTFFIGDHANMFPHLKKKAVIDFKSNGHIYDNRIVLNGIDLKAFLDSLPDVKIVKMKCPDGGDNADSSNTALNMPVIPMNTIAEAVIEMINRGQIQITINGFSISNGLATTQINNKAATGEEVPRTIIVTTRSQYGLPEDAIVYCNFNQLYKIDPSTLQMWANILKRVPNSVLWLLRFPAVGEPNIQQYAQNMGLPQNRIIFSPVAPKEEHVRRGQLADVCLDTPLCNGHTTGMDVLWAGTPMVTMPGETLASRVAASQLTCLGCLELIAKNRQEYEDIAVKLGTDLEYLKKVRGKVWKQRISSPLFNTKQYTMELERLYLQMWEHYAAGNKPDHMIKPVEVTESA

[16] = target: T1, Polypeptide N-acetylgalactosaminyltransferase 2; test: Competitive inhibition of human recombinant FLAG-tagged ppGalNAcT2 expressed in HEK293 cells using EA2 peptide as substrate by HPLC-based enzyme assay
Cricetulus griseus = organism: Cricetulus griseus; test: Inhibition of ppGalNAcT2 in Chinese hamster ldlD cell lysates assessed as reduction in O-GalNAc glycosylation by measuring glycans VVA lectin expression at 0.5 to 4 uM incubated for 30 mins by Western blot analysis; assay type: subcellular; settings: Lysate

T1 sequence (Q10471 whole entry): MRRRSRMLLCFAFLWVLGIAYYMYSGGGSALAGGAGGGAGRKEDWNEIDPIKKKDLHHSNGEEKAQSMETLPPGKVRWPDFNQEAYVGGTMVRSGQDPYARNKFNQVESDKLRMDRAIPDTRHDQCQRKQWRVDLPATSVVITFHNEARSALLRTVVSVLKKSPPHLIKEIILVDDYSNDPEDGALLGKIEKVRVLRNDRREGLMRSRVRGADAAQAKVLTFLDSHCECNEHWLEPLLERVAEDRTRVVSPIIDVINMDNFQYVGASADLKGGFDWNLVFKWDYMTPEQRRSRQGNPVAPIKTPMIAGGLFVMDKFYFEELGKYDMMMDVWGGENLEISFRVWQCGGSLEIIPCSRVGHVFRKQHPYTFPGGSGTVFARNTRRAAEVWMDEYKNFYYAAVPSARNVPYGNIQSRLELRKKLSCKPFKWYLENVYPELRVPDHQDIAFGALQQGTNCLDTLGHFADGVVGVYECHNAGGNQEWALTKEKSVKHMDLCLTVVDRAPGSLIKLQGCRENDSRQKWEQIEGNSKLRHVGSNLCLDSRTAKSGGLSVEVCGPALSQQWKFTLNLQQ

- IC50 [1]: 0.76 µM
- Kd [3]: 0.294 µM
- IC50 [5]: 1.83 µM
- IC50 [6]: 1.25 µM
- IC50 [7]: 1.14 µM
- koff [8]: 1.04 ×10⁻³ /s
- inhibition [9]: Active
- inhibition [10]: Active
- IC50 [15]: > 100 µM
- Ki [16]: 1.07 µM
- inhibition (Cricetulus griseus): Dose-dependent effect
SMILES: O=c1oc2c(O)c(O)ccc2c2cc(O)c(O)cc12
- Activity (HT-29 [2]): Non-Toxic
- Activity (HT-29 [4]): Non-Toxic
- Activity (HT-29 [11]): Non-Toxic
- Activity (HT-29 [12]): Active
- Activity (HT-29 [13]): Non-Toxic
- Activity (HT-29 [14]): Non-Toxic
- Activity (RKO): Active
